Data from US5912351A, “Anhydrous 1,4-Dihydropyridines and salts thereof” (Recordati, S.A. Chemical and Pharmaceutical Company, priority 1995, dated 1999).

Experiments:
[1] = test system: mouse monocyte-macrophage cells (ATCC TIB 67 J774A.1); assay: Cell-mediated oxidation of LDL (MDA, thiobarbituric acid assay), J774A.1 cells; format: cell-based; conditions: 30 μM, after 10 hours incubation, FIG. 7
Description: The antioxidant capacity of the compounds of the invention, on cell-mediated oxidation, was evaluated by incubating LDL and mouse monocyte-macrophage cells (ATCC TIB 67 J774A.1) with CuSO4 solution in the presence of […], lercanidipine or one of its enantiomers at several concentrations. The inhibition of formation of aldehydic breakdown products, i.e., secondary metabolites of lipid peroxidation, malonic dialdehyde (MDA), was assessed by detection of dialdehyde formation using the thiobarbituric acid assay (A. N. Hanna et al., Biochem. Pharmacol. 45: 753 (1993)).
The antioxidant capacity was evaluated by incubating ethylene-diaminetetraacetic acid free-LDL under sterile conditions with 5 μM Cu++ (100 μg Apo B/ml) in the presence of J774A.1 cells. Oxidation was stopped after 22 hours incubation by addition of butylated hydroxytoluene to the medium (final concentration 40 μM) dissolved in ethanol. […] Malonic dialdehyde equivalents were calculated using 1,1,3,3-tetramethoxypropane as the standard.
In experiments 9A and 9B, the cell-mediated oxidation effects of lercanidipine were investigated after incubation for 22 hours. […] Samples were withdrawn from the incubation medium and the oxidation product, MDA, measured as described above.

[2] = test system: EAhy-926; assay: Cell-mediated oxidation of LDL (MDA), EAhy-926 cells; format: cell-based; conditions: 10 to 100 μM, 22 hours, FIG. 6
Description: The antioxidant capacity was evaluated by incubating ethylene-diaminetetraacetic acid free-LDL under sterile conditions with 5 μM Cu++ (100 μg Apo B/ml) in the presence of J774A.1 cells. Oxidation was stopped after 22 hours incubation by addition of butylated hydroxytoluene to the medium (final concentration 40 μM) dissolved in ethanol. To the incubated sample (0.250 ml), was added trichloroacetic acid (0.750 ml, 0.20% w/v) followed by of thiobarbituric acid (0.750 ml, 0.67% w/v). The samples were heated at 100° C. for 20 min, followed by cooling and centrifugation. Malonic dialdehyde equivalents were calculated using 1,1,3,3-tetramethoxypropane as the standard.
Following the procedure in Example 9A, the effects of lercanidipine on cell-mediated oxidation were studied with a different cell line which shares many of the properties of endothelial cells (EAhy-926). (The cells were provided by: Prof. A. Catapano, Pharmacology Dept., Universita Statale--Milano.) (These or other endothelial cells can be obtained as described by C-J. S. Edgall et al., Proc. Nat. AcAd. Sci., 80: 3734-3737, (1983); and Gimbrone, M., Prog. Hemostasis Thromb., 3: 1-28, (1976)). The cells were treated with lercanidipine at a concentration of from about 10 to about 100 μM.

Compound: COC(=O)C1=C(C)NC(C)=C(C(=O)OC(C)(C)CN(C)CCC(c2ccccc2)c2ccccc2)C1c1cccc([N+](=O)[O-])c1 (racemic) [LE, methyl 1,1,N-trimethyl-N-(3,3-diphenylpropyl)-2-aminoethyl 1,4-dihydro-2,6-dimethyl-4-(3-nitrophenyl)-pyridine-3,5-dicarboxylate]
- inhibition of lipid oxidation (MDA) over time [1]: very high inhibition of lipid oxidation
- LDL oxidation (nanomoles of MDA produced) [2]: reduced the oxidation of LDL
